# Assay results as given in patent US8945540B2, “Compositions for enhancing the antibacterial activity of myeloperoxidase and methods of use thereof” (Exoxemis, Inc., priority 2008, dated 2015).
# Where two headings read alike, the source gives them in different places.
# Columns and labels:
# Staphylococcus aureus [1] = experiment: Microbicidal activity of the myeloperoxidase system (p-MPO, glucose oxidase, glucose) with amino acids in the presence of blood, CFU plate counts; synergy determination from these CFU; assay type: cell-based; conditions: for Average Viability CFU/ml 50 min / Log Reduction 50 min: MPO 4.7 U/ml, GO 4.2 U/ml
# Method in brief: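 Microbicidal activity of the MPO–glucose oxidase–glucose system against S. aureus with amino acids was assessed in 3% whole blood. Reactions of 1 mL were run at room temperature or 37° C and stopped with catalase. Surviving CFU were counted on trypticase soy agar. For each pair, Actual CFU was divided by Predicted CFU and multiplied by 100. This value was compared with variability-based thresholds to classify synergism, antagonism or additivity.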
# Staphylococcus aureus [2] = experiment: Control: microbicidal activity of the amino acid or analogue alone (no glucose, MPO, glucose oxidase) in the presence of blood; assay type: cell-based; conditions: for log reduction at 5000 µM: Staphylococcus aureus, 1 h, read-out: Log Reduction 60 min
# Source text: As a control to determine the microbicidal activity of the amino acids alone, the foregoing procedure was followed without replication, except in the absence of glucose, MPO, and glucose oxidase.
# [3] = Table 7, amino acid analogue 5 mM, MPO 38 U/ml, GO 33.3 U/ml, blood
# [4] = amino acid analogue alone 5 mM, MPO 0, GO 0, no glucose, blood
# [5] = Table 5, amino acid 5 mM (none: 0 mM), MPO 38 U/ml, GO 33.3 U/ml, blood
# [6] = amino acid alone 5 mM, MPO 0, GO 0, no glucose, blood, without replication
# [7] = MPO 100 μg/mL, AA 20 mM, 30 min
# [8] = MPO 100 μg/mL, AA 20 mM, 60 min
# [9] = Table 10, single amino acid 2.5 mM, in the presence of blood
# [10] = Table 11, single amino acid 2.5 mM, in the presence of blood
# [11] = Table 13, single amino acid 2.5 mM, in the presence of blood
# [12] = Table 14, single amino acid 2.5 mM, in the presence of blood
# [13] = Table 19, amino acid (racemic, L- or D-form) 2.5 mM
# [14] = Table 4, amino acid 5 mM (none: 0 mM), MPO 38 U/ml, GO 33.3 U/ml, blood
# [15] = Table 3, amino acid 5 mM (none: 0 mM), MPO 38 U/ml, GO 33.3 U/ml, blood
compound,measurement,setting,value
"Cl.NCC(N)C(=O)O (racemic) [DL-2,3-Diaminopropionic acid monohydrochloride]",Average Viability CFU/ml 60 min,Staphylococcus aureus [1]; [3],0 CFU/ml
same,Log Reduction 60 min,Staphylococcus aureus [1]; [3],7.4
same,log reduction at 5000 µM,Staphylococcus aureus [2]; [4],0
same,Average Viability CFU/ml 60 min,Staphylococcus aureus [2]; [4],20600000 CFU/ml
CC(CN)C(=O)O (racemic) [DL-3-Aminoisobutyric acid],Average Viability CFU/ml 60 min,Staphylococcus aureus [1]; [3],0 CFU/ml
same,Log Reduction 60 min,Staphylococcus aureus [1]; [3],7.4
same,Average Viability CFU/ml 60 min,Staphylococcus aureus [2]; [4],24200000 CFU/ml
same,Log Reduction 60 min,Staphylococcus aureus [2]; [4],0.0
CNCC(=O)OC.Cl [Sarcosine methyl ester hydrochloride],Average Viability CFU/ml 60 min,Staphylococcus aureus [1]; [3],0 CFU/ml
same,Log Reduction 60 min,Staphylococcus aureus [1]; [3],7.4
same,log reduction at 5000 µM,Staphylococcus aureus [2]; [4],0
same,Average Viability CFU/ml 60 min,Staphylococcus aureus [2]; [4],23200000 CFU/ml
N[C@H](CC(=O)O)C(=O)O [D-Aspartic acid],Average Viability CFU/ml 60 min,Staphylococcus aureus [1]; [5],570000 CFU/ml
same,Log Reduction 60 min,Staphylococcus aureus [1]; [5],1.6
same,log reduction at 5000 µM,Staphylococcus aureus [2]; [6],0.1
same,Average Viability CFU/ml 60 min,Staphylococcus aureus [2]; [6],20900000 CFU/ml
COC(=O)CN.Cl [Glycine methyl ester hydrochloride],Average Viability CFU/ml 60 min,Staphylococcus aureus [1]; [3],0 CFU/ml
same,Log Reduction 60 min,Staphylococcus aureus [1]; [3],7.4
same,log reduction at 5000 µM,Staphylococcus aureus [2],0
same,Average Viability CFU/ml 60 min,Staphylococcus aureus [2]; [4],21100000 CFU/ml
N[C@H](Cc1ccccc1)C(=O)O [D-Phenylalanine],Log 10 (CFU + 1) Survivors,"Staphylococcus aureus [1]; MPO 25 μg/mL, AA 5 mM, 30 min",5.1
same,Log 10 (CFU + 1) Survivors,"Staphylococcus aureus [1]; MPO 25 μg/mL, AA 5 mM, 60 min",0.0
same,Log 10 (CFU + 1) Survivors,"Staphylococcus aureus [1]; MPO 25 μg/mL, AA […], 30 min",7.2
same,Log 10 (CFU + 1) Survivors,"Staphylococcus aureus [1]; MPO 25 μg/mL, AA […], 60 min",4.9
same,Log 10 (CFU + 1) Survivors,"Staphylococcus aureus [1]; MPO 100 μg/mL, AA 5 mM, 30 min",0.0
same,Log 10 (CFU + 1) Survivors,"Staphylococcus aureus [1]; MPO 100 μg/mL, AA 5 mM, 60 min",0.0
same,Log 10 (CFU + 1) Survivors,Staphylococcus aureus [1]; [7],0.0
same,Log 10 (CFU + 1) Survivors,Staphylococcus aureus [1]; [8],0.0
same,Average Viability CFU/ml 60 min,Staphylococcus aureus [1]; [5],0 CFU/ml
same,Log Reduction 60 min,Staphylococcus aureus [1]; [5],7.4
same,Average Viability CFU/ml 50 min,Staphylococcus aureus [1]; [9],7950000 CFU/ml
same,Log Reduction 50 min,Staphylococcus aureus [1]; [9],0.5
same,Average Viability CFU/ml 50 min,Staphylococcus aureus [1]; [10],9300000 CFU/ml
same,Log Reduction 50 min,Staphylococcus aureus [1]; [10],0.5
same,Average Viability CFU/ml 50 min,Staphylococcus aureus [1]; [11],8850000 CFU/ml
same,Log Reduction 50 min,Staphylococcus aureus [1]; [11],0.4
same,Average Viability CFU/ml 50 min,Staphylococcus aureus [1]; [12],7950000 CFU/ml
same,Log Reduction 50 min,Staphylococcus aureus [1]; [12],0.5
same,Average Viability CFU/ml 50 min,Staphylococcus aureus [1]; [13],8700000 CFU/ml
same,Log Reduction 50 min,Staphylococcus aureus [1]; [13],0.5
same,log reduction at 5000 µM,Staphylococcus aureus [2]; [6],0
same,Average Viability CFU/ml 60 min,Staphylococcus aureus [2]; [6],24200000 CFU/ml
O=CC(=O)O [Glyoxylic acid],Average Viability CFU/ml 60 min,Staphylococcus aureus [1]; [14],610000 CFU/ml
same,Log Reduction 60 min,Staphylococcus aureus [1]; [14],1.6
same,log reduction at 5000 µM,Staphylococcus aureus [2]; [6],0.1
same,Average Viability CFU/ml 60 min,Staphylococcus aureus [2]; [6],22200000 CFU/ml
O=C(O)CNC(=O)c1ccccc1 [Hippuric acid],Log 10 (CFU + 1) Survivors,"Staphylococcus aureus [1]; MPO 25 μg/mL, AA 5 mM, 30 min",7.3
same,Log 10 (CFU + 1) Survivors,"Staphylococcus aureus [1]; MPO 25 μg/mL, AA 5 mM, 60 min",5.9
same,Log 10 (CFU + 1) Survivors,"Staphylococcus aureus [1]; MPO 25 μg/mL, AA […], 30 min",6.7
same,Log 10 (CFU + 1) Survivors,"Staphylococcus aureus [1]; MPO 25 μg/mL, AA […], 60 min",5.8
same,Log 10 (CFU + 1) Survivors,"Staphylococcus aureus [1]; MPO 100 μg/mL, AA 5 mM, 30 min",7.3
same,Log 10 (CFU + 1) Survivors,"Staphylococcus aureus [1]; MPO 100 μg/mL, AA 5 mM, 60 min",5.9
same,Log 10 (CFU + 1) Survivors,Staphylococcus aureus [1]; [7],6.8
same,Log 10 (CFU + 1) Survivors,Staphylococcus aureus [1]; [8],5.0
same,Average Viability CFU/ml 60 min,Staphylococcus aureus [1]; [15],865000 CFU/ml
same,Log 10 (CFU + 1) Survivors 60 min,Staphylococcus aureus [1]; [15],5.9
same,Log Reduction 60 min,Staphylococcus aureus [1]; [15],1.4
same,log reduction at 5000 µM,Staphylococcus aureus [2]; [6],0
same,Average Viability CFU/ml 60 min,Staphylococcus aureus [2]; [6],19700000 CFU/ml
